Among the data in patent US10189839B2, “Tricyclic imidazole compounds as inhibitors of tryptophan hydroxylase” (ACTELION PHARMACEUTICALS LTD, priority 2013, dated 2019) are IC50 values, retold here.

The assay deals with T1, full length human TPH1 (Homo sapiens, UniProt P17752).
T1 construct: To generate the enzyme, full length human TPH1 is cloned into the plasmid pET20b(+); made in house; host or cells: E. coli
T1 sequence (P17752 1-444): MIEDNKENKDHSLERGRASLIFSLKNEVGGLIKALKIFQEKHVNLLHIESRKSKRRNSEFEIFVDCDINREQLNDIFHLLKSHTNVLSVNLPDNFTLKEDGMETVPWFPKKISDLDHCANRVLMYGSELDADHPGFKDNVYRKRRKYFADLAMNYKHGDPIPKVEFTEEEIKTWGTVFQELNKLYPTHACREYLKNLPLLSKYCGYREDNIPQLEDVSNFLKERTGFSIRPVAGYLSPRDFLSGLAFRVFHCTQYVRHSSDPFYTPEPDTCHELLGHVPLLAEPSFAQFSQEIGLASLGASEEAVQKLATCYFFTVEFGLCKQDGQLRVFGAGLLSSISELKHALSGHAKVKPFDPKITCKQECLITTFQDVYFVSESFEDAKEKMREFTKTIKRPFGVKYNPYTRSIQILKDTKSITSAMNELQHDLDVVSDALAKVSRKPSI
The assay can be described thus: Biochemical in vitro assay using fluorescence readout (TPH1 enzyme activity). The settings on record: Table 1, mean where determined several times. In short, it runs like this: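 IC50 (mean of repeats) derived from 5-hydroxy-L-tryptophan fluorescence at 540 nm (300 nm excitation) relative to vehicle, after perchloric acid stop. Reaction: 60 min, 15° C., pH 7.6 Tris-HCl, 40 μM L-tryptophan, 100 μM 6-methyltetrahydropterine, DTT, catalase, with 40-80 nM purified full-length human TPH1 from E. coli.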
In turn, `O=C(NC1CC1)c1ccc(OCC(=O)N2CCc3nc4n(c3C2c2ccc(C3CC3)cc2F)CCCC4)c(Cl)n1` (stereo not shown) [Example 1.8.5, 6-chloro-N-cyclopropyl-5-(2-(1-(4-cyclopropyl-2-fluorophenyl)-3,4,6,7,8,9-hexahydroimidazo[1,2-a:5,4-c′]dipyridin-2(1H)-yl)-2-oxoethoxy)picolinamide] registered an IC50 of 24 nM.

Turning to `O=C(NC1CC1)c1ccc(OCC(=O)N2CCc3nc4n(c3[C@@H]2c2ccc(C3CC3)cc2F)CCCC4)c(Cl)n1` [Example 1.8.6, (S)-6-chloro-N-cyclopropyl-5-(2-(1-(4-cyclopropyl-2-fluorophenyl)-3,4,6,7,8,9-hexahydroimidazo[1,2-a:5,4-c′]dipyridin-2(1H)-yl)-2-oxoethoxy)picolinamide], the IC50 stood at 9 nM. Then `CCc1nc(NS(C)(=O)=O)ncc1OCC(=O)N1CCc2nc3n(c2C1c1ccc(C2CC2)cc1F)CCCC3` (stereo not shown) [Example 1.8.7, N-(5-(2-(1-(4-cyclopropyl-2-fluorophenyl)-3,4,6,7,8,9-hexahydroimidazo[1,2-a:5,4-c′]dipyridin-2(1H)-yl)-2-oxoethoxy)-4-ethylpyrimidin-2-yl)methanesulfonamide], with 54 nM; and `Cc1ccc(C2c3c(nc4n3CCCC4)CCN2C(=O)COc2ccc(-c3ncco3)nc2Cl)c(F)c1F` (stereo not shown) [Example 1.9.1, 2-((2-chloro-6-(oxazol-2-yl)pyridin-3-yl)oxy)-1-(1-(2,3-difluoro-4-methylphenyl)-3,4,6,7,8,9-hexahydroimida-zo[1,2-a:5,4-c′]dipyridin-2(1H)-yl)ethanone], with 20 nM; and `Cc1ccc(C2c3c(nc4n3CCCC4)CCN2C(=O)COc2ccc(NS(C)(=O)=O)nc2Cl)c(F)c1F` (stereo not shown) [Example 1.9.2, N-(6-chloro-5-(2-(1-(2,3-difluoro-4-methylphenyl)-3,4,6,7,8,9-hexahydroimidazo[1,2-a:5,4-c′]dipyridin-2(1H)-yl)-2-oxoethoxy)pyridin-2-yl)methanesulfonamide], with 26 nM. Molecule `Cc1ccc(C2c3c(nc4n3CCCC4)CCN2C(=O)COc2ccc(C(=O)N(C)C3CC3)nc2Cl)c(F)c1F` (stereo not shown) [Example 1.9.3, 6-chloro-N-cyclopropyl-5-(2-(1-(2,3-difluoro-4-methyl-phenyl)-3,4,6,7,8,9-hexahydroimidazo[1,2-a:5,4-c′]di-pyridin-2(1H)-yl)-2-oxoethoxy)-N-methylpicolinamide] had an IC50 of 27 nM. `Cc1ccc(C2c3c(nc4n3CCCC4)CCN2C(=O)COc2ccc(N3CCN(C)CC3)nc2Cl)c(F)c1F` (stereo not shown) [Example 1.9.4, 2-((2-chloro-6-(4-methylpiperazin-1-yl)pyridin-3-yl)oxy)-1-(1-(2,3-difluoro-4-methylphenyl)-3,4,6,7,8,9-hexahydroimidazo[1,2-a:5,4-c′]dipyridin-2(1H)-yl)ethanone]: the IC50 stood at 18 nM.

The molecule `Cc1ccc(C2c3c(nc4n3CCCC4)CCN2C(=O)COc2ccc(C(F)(F)F)cc2Cl)c(F)c1F` (stereo not shown) [Example 1.9.5, 2-(2-chloro-4-(trifluoromethyl)phenoxy)-1-(1-(2,3-difluoro-4-methylphenyl)-3,4,6,7,8,9-hexahydroimidazo[1,2-a:5,4-c′]dipyridin-2(1H)-yl)ethanone] had an IC50 of 87 nM.

Regarding `Cc1ccc(C2c3c(nc4n3CCCC4)CCN2C(=O)COc2ccc(N3CCCS3(=O)=O)nc2Cl)c(F)c1F` (stereo not shown) [Example 1.9.6, 2-((2-chloro-6-(1,1-dioxidoisothiazolidin-2-yl)pyridin-3-yl)oxy)-1-(1-(2,3-difluoro-4-methylphenyl)-3,4,6,7,8,9-hexahydroimidazo[1,2-a:5,4-c′]dipyridin-2(1H)-yl)ethanone], the IC50 amounted to 9 nM.

Molecule `CCc1nc(NS(C)(=O)=O)ccc1OCC(=O)N1CCc2nc3n(c2C1c1ccc(C)c(F)c1F)CCCC3` (stereo not shown) [Example 1.9.7, N-(5-(2-(1-(2,3-difluoro-4-methylphenyl)-3,4,6,7,8,9-hexahydroimidazo[1,2-a:5,4-c′]dipyridin-2(1H)-yl)-2-oxoethoxy)-6-ethylpyridin-2-yl)methanesulfonamide] gave a half-inhibitory concentration (IC50) of 8 nM.
